Source: the NIST ThermoML archive (doi:10.1021/je7007523)
Where “and” joins values, the source holds several entries; their conditions need not be identical. Equal values may be shown once. ± gives the expanded uncertainty stated by the source.

Details: 313.15 K; Liquid; Ebulliometric method (Recirculating still)

Row | vapor or sublimation pressure | SMILES
1 | 24.61 ± 0.14 kPa and 24.62 ± 0.14 kPa | C1CCCCC1 [cyclohexane]
2 | 12.33 ± 0.088 kPa and 12.33 ± 0.087 kPa | CCCCCCC [heptane]
3 | 44.95 ± 0.22 kPa | C=CCCCC [hex-1-ene]
